Measurements from PubChem BioAssay (NCI).
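Five compound concentrations were applied to cells in 96-well plates for 48 hours; endpoints were derived by simple linear interpolation of the resulting dose-response curve. GI50: concentration for 50% inhibition of growth. TGI: total growth inhibition.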

Legend:
Assay in all cases: growth of human tumour cells (NCI), 48 h
[1] = system: NCI-H226 lung
[2] = system: NCI-H23 lung
[3] = system: NCI-H460 lung
[4] = system: NCI-H522 lung
[5] = system: NCI/ADR-RES ovarian
[6] = system: OVCAR-3 ovarian
[7] = system: OVCAR-4 ovarian
[8] = system: OVCAR-5 ovarian
[9] = system: OVCAR-8 ovarian
[10] = system: PC-3 prostate
[11] = system: RPMI-8226 leukemia
[12] = system: RXF 393 renal
[13] = system: SF-268 CNS
[14] = system: SF-295 CNS
[15] = system: SF-539 CNS
[16] = system: SK-MEL-2 melanoma
[17] = system: SK-MEL-28 melanoma
[18] = system: SK-MEL-5 melanoma
[19] = system: SK-OV-3 ovarian
[20] = system: SN12C renal
[21] = system: SNB-19 CNS
[22] = system: SNB-75 CNS
[23] = system: SW-620 colon
[24] = system: T-47D breast
[25] = system: TK-10 renal
[26] = system: U251 CNS
[27] = system: UACC-257 melanoma
[28] = system: UACC-62 melanoma

O=C(c1ccccc1)n1ccc(-c2cc3cc(Br)ccc3oc2=O)n1
GI50 [1]: 7.23 µM | TGI [1]: 62.1 µM | GI50 [2]: 5.87 µM | TGI [2]: > 100 µM | GI50 [3]: 3.78 µM | TGI [3]: > 100 µM | GI50 [4]: 3.36 µM | TGI [4]: 17 µM | GI50 [5]: 4.13 µM | TGI [5]: 81.3 µM | GI50 [6]: 2.06 µM | TGI [6]: > 100 µM | GI50 [7]: 4.56 µM | TGI [7]: > 100 µM | GI50 [8]: 13.9 µM | TGI [8]: > 100 µM | GI50 [9]: 2.73 µM | TGI [9]: 51.6 µM | GI50 [10]: 4.05 µM | TGI [10]: > 100 µM | GI50 [11]: 3.8 µM | TGI [11]: > 100 µM | GI50 [12]: 6.18 µM | TGI [12]: > 100 µM | GI50 [13]: 4.29 µM | TGI [13]: > 100 µM | GI50 [14]: 8.91 µM | TGI [14]: > 100 µM | GI50 [15]: 7.44 µM | TGI [15]: 67.3 µM | GI50 [16]: 5.6 µM | TGI [16]: 74.7 µM | GI50 [17]: 6.05 µM | TGI [17]: > 100 µM | GI50 [18]: 4.14 µM | TGI [18]: 23.6 µM | GI50 [19]: 6.08 µM | TGI [19]: 62.5 µM | GI50 [20]: 6.28 µM | TGI [20]: > 100 µM | GI50 [21]: 9.97 µM | TGI [21]: > 100 µM | GI50 [22]: 7.09 µM | TGI [22]: > 100 µM | GI50 [23]: 5.15 µM | TGI [23]: > 100 µM | GI50 [24]: 6.22 µM | TGI [24]: 70.9 µM | GI50 [25]: 47.5 µM | TGI [25]: > 100 µM | GI50 [26]: 4.82 µM | TGI [26]: > 100 µM | GI50 [27]: 4 µM | TGI [27]: 30.2 µM | GI50 [28]: 3.55 µM | TGI [28]: 22.9 µM
